Source: PubChem BioAssay AID1963420 (Molecular Pharmacology Branch, DTP, NCI, 2024)

Test system: 494315-158-R-J1-PDC complex spheroid growth, percent test/control
Assay: Anticancer human tumor 494315-158-R-J1-PDC patient-derived soft tissue sarcoma cell line growth inhibition [Asc]
Conditions: for IC50: curve of first compound; for viability, T/C: stronger effect = lower value
Outline: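 Concentration series start at each agent's clinical Cmax, or at 10 microM when none is established, and drop in half-log steps; agents are applied alone or together to complex spheroids built with HUVEC and hMSC.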
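Further: compound exposure lasted seven days after spheroids formed for three days.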

`COc1c(OCCCN2CCOCC2)ccc2c3n(c(=NC(=O)c4cnc(N)nc4)nc12)CCN3` + CNC(C)C(=O)NC1CN(S(=O)(=O)c2cccc(S(=O)(=O)N3CCC4CCC(C(=O)NC(c5ccccc5)c5ccccc5)N4C(=O)C(NC(=O)C(C)NC)C3)c2)CCC2CCC(C(=O)NC(c3ccccc3)c3ccccc3)N2C1=O showed an IC50 (second compound 0.01 µM) of 17.1 nM, an IC50 (second compound 0.0316 µM) of 11 nM and an IC50 (second compound 0.1 µM) of 4.59 nM. For the same molecule, the IC50 (second compound 0.316 µM) was under 3.16 nM, the IC50 (second compound 1 µM) was under 3.16 nM and the viability, T/C (second compound 0.01 µM, first compound 0.00316 µM) was 65.8%. The viability, T/C (second compound 0.01 µM, first compound 0.01 µM) was 55.1%, the viability, T/C (second compound 0.01 µM, first compound 0.0316 µM) was 44.7% and the viability, T/C (second compound 0.01 µM, first compound 0.1 µM) was 22.7%. For the same molecule, the viability, T/C (second compound 0.01 µM, first compound 0.316 µM) was 16.8%, the viability, T/C (second compound 0.01 µM, first compound 1 µM) was 8.91% and the viability, T/C (second compound 0.0316 µM, first compound 0.00316 µM) was 53.5%. It also gave a viability, T/C (second compound 0.0316 µM, first compound 0.01 µM) of 54.3%, a viability, T/C (second compound 0.0316 µM, first compound 0.0316 µM) of 37.3% and a viability, T/C (second compound 0.0316 µM, first compound 0.1 µM) of 25.5%. For the same molecule, the viability, T/C (second compound 0.0316 µM, first compound 0.316 µM) was 14%, the viability, T/C (second compound 0.0316 µM, first compound 1 µM) was 9.58% and the viability, T/C (second compound 0.1 µM, first compound 0.00316 µM) was 52.3%. It also gave a viability, T/C (second compound 0.1 µM, first compound 0.01 µM) of 45.3%, a viability, T/C (second compound 0.1 µM, first compound 0.0316 µM) of 30.1% and a viability, T/C (second compound 0.1 µM, first compound 0.1 µM) of 18.9%. The viability, T/C (second compound 0.1 µM, first compound 0.316 µM) was 12.8%, the viability, T/C (second compound 0.1 µM, first compound 1 µM) was 9.36% and the viability, T/C (second compound 0.316 µM, first compound 0.00316 µM) was 38.2%. It also gave a viability, T/C (second compound 0.316 µM, first compound 0.01 µM) of 39.2%, a viability, T/C (second compound 0.316 µM, first compound 0.0316 µM) of 28.4% and a viability, T/C (second compound 0.316 µM, first compound 0.1 µM) of 16.8%. For the same molecule, the viability, T/C (second compound 0.316 µM, first compound 0.316 µM) was 11.8%, the viability, T/C (second compound 0.316 µM, first compound 1 µM) was 9.4% and the viability, T/C (second compound 1 µM, first compound 0.00316 µM) was 47.4%. For the same molecule, the viability, T/C (second compound 1 µM, first compound 0.01 µM) was 35.2%, the viability, T/C (second compound 1 µM, first compound 0.0316 µM) was 25.2% and the viability, T/C (second compound 1 µM, first compound 0.1 µM) was 18.6%. The viability, T/C (second compound 1 µM, first compound 0.316 µM) was 9.45% and the viability, T/C (second compound 1 µM, first compound 1 µM) was 7.69%.

Work on `O=C(c1ccc(F)c(F)c1Nc1ccc(I)cc1F)N1CC(O)([C@@H]2CCCCN2)C1` + CCN1C(C(=O)NC23CCC(C(=O)O)(CC2)CC3)C(c2cccc(Cl)c2F)C2(C(=O)Nc3cc(Cl)ccc32)C12CCCCC2 yielded an IC50 (second compound 0.03 µM) of over 1000 nM, an IC50 (second compound 0.0949 µM) of over 1000 nM and an IC50 (second compound 0.3 µM) of over 1000 nM. For the same molecule, the IC50 (second compound 0.949 µM) was over 1000 nM, the IC50 (second compound 3 µM) was 795 nM and the viability, T/C (second compound 0.03 µM, first compound 0.00316 µM) was 110%. For the same molecule, the viability, T/C (second compound 0.03 µM, first compound 0.01 µM) was 116%, the viability, T/C (second compound 0.03 µM, first compound 0.0316 µM) was 121% and the viability, T/C (second compound 0.03 µM, first compound 0.1 µM) was 115%. For the same molecule, the viability, T/C (second compound 0.03 µM, first compound 0.316 µM) was 95.7%, the viability, T/C (second compound 0.03 µM, first compound 1 µM) was 61.7% and the viability, T/C (second compound 0.0949 µM, first compound 0.00316 µM) was 98%. The viability, T/C (second compound 0.0949 µM, first compound 0.01 µM) was 90.5%, the viability, T/C (second compound 0.0949 µM, first compound 0.0316 µM) was 110% and the viability, T/C (second compound 0.0949 µM, first compound 0.1 µM) was 99.2%. It also gave a viability, T/C (second compound 0.0949 µM, first compound 0.316 µM) of 96.6%, a viability, T/C (second compound 0.0949 µM, first compound 1 µM) of 58.4% and a viability, T/C (second compound 0.3 µM, first compound 0.00316 µM) of 98.9%. The viability, T/C (second compound 0.3 µM, first compound 0.01 µM) was 114%, the viability, T/C (second compound 0.3 µM, first compound 0.0316 µM) was 120% and the viability, T/C (second compound 0.3 µM, first compound 0.1 µM) was 111%. It also gave a viability, T/C (second compound 0.3 µM, first compound 0.316 µM) of 87.8%, a viability, T/C (second compound 0.3 µM, first compound 1 µM) of 51.2% and a viability, T/C (second compound 0.949 µM, first compound 0.00316 µM) of 88.4%. The viability, T/C (second compound 0.949 µM, first compound 0.01 µM) was 93.7%, the viability, T/C (second compound 0.949 µM, first compound 0.0316 µM) was 137% and the viability, T/C (second compound 0.949 µM, first compound 0.1 µM) was 127%. For the same molecule, the viability, T/C (second compound 0.949 µM, first compound 0.316 µM) was 97.7%, the viability, T/C (second compound 0.949 µM, first compound 1 µM) was 61.3% and the viability, T/C (second compound 3 µM, first compound 0.00316 µM) was 98.2%. It also gave a viability, T/C (second compound 3 µM, first compound 0.01 µM) of 102%, a viability, T/C (second compound 3 µM, first compound 0.0316 µM) of 101% and a viability, T/C (second compound 3 µM, first compound 0.1 µM) of 112%. It also gave a viability, T/C (second compound 3 µM, first compound 0.316 µM) of 84.5% and a viability, T/C (second compound 3 µM, first compound 1 µM) of 41.4%.
